Several values for one entry are separate records, joined by “and”; a condition that tells them apart may be missing. Equal entries are not always repeated. Toxic doses and inconclusive results are not listed. No stated cut-off is given here; in the data, active means T/C of 150% or more; inactive means T/C below 125%.
Test system: L1210 leukemia ip in BDF1 mice, survival T/C
Experiment: NCI In Vivo Anticancer Drug Screen. Data for tumor model L1210 Leukemia (intraperitoneal) in B6D2F1 (BDF1) mice
Details: endpoint: mean survival time, higher = longer survival
Summary of the method: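 Read-out is survival time, reported as the treated-group measurement over the vehicle-control measurement.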

[1] = dose: 100.0 mg/kg/injection, schedule: Q04DX003 (ip), vehicle: saline with Tween-80
[2] = dose: 200.0 mg/kg/injection, schedule: Q04DX003 (ip), vehicle: saline with Tween-80
[3] = dose: 400.0 mg/kg/injection, schedule: Q04DX003 (ip), vehicle: saline with Tween-80
[4] = dose: 100.0 mg/kg/injection, schedule: Q01DX009 (ip), vehicle: saline with Tween-80
[5] = dose: 200.0 mg/kg/injection, schedule: Q01DX009 (ip), vehicle: saline with Tween-80
[6] = dose: 400.0 mg/kg/injection, schedule: Q01DX009 (ip), vehicle: saline with Tween-80
[7] = dose: 100.0 mg/kg/injection, schedule: Q01DX009 (ip), vehicle: Klucel (hydroxypropylcellulose) (HPC)
[8] = dose: 200.0 mg/kg/injection, schedule: Q01DX009 (ip), vehicle: Klucel (hydroxypropylcellulose) (HPC)
[9] = dose: 400.0 mg/kg/injection, schedule: Q01DX009 (ip), vehicle: Klucel (hydroxypropylcellulose) (HPC)
[10] = dose: 100.0 mg/kg/injection, schedule: Q01DX001 (ip), vehicle: Klucel (hydroxypropylcellulose) (HPC)
[11] = dose: 200.0 mg/kg/injection, schedule: Q01DX001 (ip), vehicle: Klucel (hydroxypropylcellulose) (HPC)
[12] = dose: 400.0 mg/kg/injection, schedule: Q01DX001 (ip), vehicle: Klucel (hydroxypropylcellulose) (HPC)
[13] = dose: 100.0 mg/kg/injection, schedule: Q01DX001 (ip), vehicle: saline
[14] = dose: 200.0 mg/kg/injection, schedule: Q01DX001 (ip), vehicle: saline
[15] = dose: 400.0 mg/kg/injection, schedule: Q01DX001 (ip), vehicle: saline
[16] = dose: 100.0 mg/kg/injection, schedule: Q04DX003 (ip), vehicle: Klucel (hydroxypropylcellulose) (HPC)

Measured: T/C

CN(NC(=O)CC(=O)NN(C)C(=S)c1ccc(Cl)cc1)C(=S)c1ccc(Cl)cc1
inactive: dose: 25.0 mg/kg/injection, schedule: Q01DX009 (ip), vehicle: gum acacia 96 % of control | dose: 25.0 mg/kg/injection, schedule: Q04DX003 (ip), vehicle: gum acacia 92 % of control | dose: 50.0 mg/kg/injection, schedule: Q01DX009 (ip), vehicle: gum acacia 91 % of control | dose: 50.0 mg/kg/injection, schedule: Q04DX003 (ip), vehicle: gum acacia 93 % of control | dose: 100.0 mg/kg/injection, schedule: Q01DX009 (ip), vehicle: gum acacia 89 % of control | dose: 100.0 mg/kg/injection, schedule: Q04DX003 (ip), vehicle: gum acacia 90 % of control | dose: 200.0 mg/kg/injection, schedule: Q04DX003 (ip), vehicle: gum acacia 86 % of control | dose: 400.0 mg/kg/injection, schedule: Q04DX003 (ip), vehicle: gum acacia 92 % of control

COC(C)c1nnnn1C (stereo unspecified)
inactive: [1] 97 % of control | [2] 98 % of control | [3] 101 % of control

O=C1c2ccccc2C(=O)N1N1C(=O)c2ccccc2C1=O
inactive: [4] 96 % of control | [1] 97 % of control | [5] 91 % of control | [2] 100 % of control | [6] 96 % of control | [3] 97 % of control

Clc1cccc2nsnc12
inactive: [7] 102 % of control | [8] 100 % of control | [9] 102 % of control

O=C(NC(c1ccccc1)C(NC(=O)c1ccccc1)c1ccccc1)c1ccccc1 (stereo unspecified)
inactive: [10] 99 % of control | [11] 99 % of control | [12] 97 % of control

CCC(CC)NC(C)CO (stereo unspecified)
inactive: dose: 75.0 mg/kg/injection, schedule: Q01DX001 (ip), vehicle: acid diluted with saline 105 % of control | dose: 150.0 mg/kg/injection, schedule: Q01DX001 (ip), vehicle: acid diluted with saline 103 % of control | dose: 300.0 mg/kg/injection, schedule: Q01DX001 (ip), vehicle: acid diluted with saline 103 % of control

Cc1cccc(Cl)c1NC(=O)CCCl
inactive: [4] 103 % of control | [5] 104 % of control | [6] 90 % of control

Cc1nnc(NS(=O)(=O)c2ccc(N=Nc3c(N)[nH]c(=S)[nH]c3=O)cc2)s1
inactive: [13] 100 % of control | [14] 100 % of control | [15] 100 % of control

Nc1c(Cl)c(Cl)c(Cl)c(Cl)c1C(=O)O
inactive: dose: 40.0 mg/kg/injection, schedule: Q01DX009 (ip), vehicle: Klucel (hydroxypropylcellulose) (HPC) 105 % of control | dose: 75.0 mg/kg/injection, schedule: Q01DX009 (ip), vehicle: Klucel (hydroxypropylcellulose) (HPC) 103 % of control | dose: 75.0 mg/kg/injection, schedule: Q04DX003 (ip), vehicle: saline 104 % of control | [7] 93 % of control | dose: 150.0 mg/kg/injection, schedule: Q01DX009 (ip), vehicle: Klucel (hydroxypropylcellulose) (HPC) 97 % of control and 122 % of control | dose: 150.0 mg/kg/injection, schedule: Q04DX003 (ip), vehicle: saline 98 % of control | [8] 93 % of control

NC(=O)c1cc([N+](=O)[O-])ccc1Cl
inactive: [1] 97 % of control | [2] 97 % of control | [3] 101 % of control

O=S(=O)(Cl)c1cccc2cc3ccccc3cc12
inactive: [13] 92 % of control | [4] 107 % of control | [14] 100 % of control | [5] 102 % of control | [15] 98 % of control | [6] 103 % of control

CC(C)C1CCC(NC(=O)NCCF)CC1 (stereo unspecified)
inactive: dose: 9.5 mg/kg/injection, schedule: Q01DX001 (ip), vehicle: other 105 % of control | dose: 19.0 mg/kg/injection, schedule: Q01DX001 (ip), vehicle: other 100 % of control | dose: 38.0 mg/kg/injection, schedule: Q01DX001 (ip), vehicle: other 102 % of control

CCOC(=O)NN(C(=O)OCC)c1c(NNC(C)=O)nc(N)[nH]c1=O
inactive: [13] 99 % of control | [14] 92 % of control | [15] 99 % of control

CC(CO)(CO)NC(=O)Nc1ccccc1F
inactive: [4] 113 % of control | [5] 103 % of control | [6] 101 % of control

COC(=O)C1=NN(c2ccccc2)CC1
inactive: [13] 98 % of control | dose: 100.0 mg/kg/injection, schedule: Q04DX003 (ip), vehicle: other 88 % of control | [14] 106 % of control | dose: 200.0 mg/kg/injection, schedule: Q04DX003 (ip), vehicle: other 94 % of control | [15] 90 % of control | dose: 400.0 mg/kg/injection, schedule: Q04DX003 (ip), vehicle: other 94 % of control

O=C(O)c1ccc(N=Cc2ccc([N+](=O)[O-])s2)cc1
inactive: dose: 25.0 mg/kg/injection, schedule: Q04DX003 (ip), vehicle: saline with Tween-80 94 % of control | dose: 50.0 mg/kg/injection, schedule: Q04DX003 (ip), vehicle: saline with Tween-80 100 % of control | [16] 103 % of control | [1] 102 % of control

CCOC(=O)C1C(C#N)C2OC1C(Cl)C2Cl (stereo unspecified)
inactive: [7] 100 % of control | [8] 102 % of control | [9] 94 % of control

Clc1ccc(Cl)c(OCC2=NCCN2)c1
inactive: dose: 20.0 mg/kg/injection, schedule: Q04DX003 (ip), vehicle: Klucel (hydroxypropylcellulose) (HPC) 102 % of control | dose: 40.0 mg/kg/injection, schedule: Q04DX003 (ip), vehicle: Klucel (hydroxypropylcellulose) (HPC) 101 % of control

COC(=O)c1cccc(Nc2ccccc2C(=O)O)c1
inactive: [10] 102 % of control | [11] 96 % of control | [12] 93 % of control

Nc1nc(N)c2nc(CNc3ccc(C(=O)NCCCC(=O)O)cc3)cnc2n1 (tested in a mixture with another compound)
inactive: dose: 12.5 mg/kg/injection, schedule: Q01DX001 (ip), vehicle: Klucel (hydroxypropylcellulose) (HPC) 92 % of control | dose: 25.0 mg/kg/injection, schedule: Q01DX001 (ip), vehicle: Klucel (hydroxypropylcellulose) (HPC) 97 % of control | [10] 108 % of control

CN(C(=O)c1c(Cl)[nH]c2ccccc12)c1ccccc1
inactive: dose: 25.0 mg/kg/injection, schedule: Q04DX003 (ip), vehicle: Klucel (hydroxypropylcellulose) (HPC) 96 % of control | dose: 50.0 mg/kg/injection, schedule: Q04DX003 (ip), vehicle: Klucel (hydroxypropylcellulose) (HPC) 95 % of control | [16] 90 % of control

NC(=O)CS
inactive: [13] 96 % of control | [14] 105 % of control

CN1CCOC1=Nc1ccc(Cl)cc1
inactive: [1] 94 % of control | [2] 99 % of control | [3] 88 % of control

NNc1c(F)c(F)c(Br)c(F)c1F
inactive: dose: 25.6 mg/kg/injection, schedule: Q04DX002 (ip), vehicle: saline with Tween-80 106 % of control | dose: 64.0 mg/kg/injection, schedule: Q04DX002 (ip), vehicle: saline with Tween-80 95 % of control | dose: 160.0 mg/kg/injection, schedule: Q04DX002 (ip), vehicle: saline with Tween-80 106 % of control | dose: 400.0 mg/kg/injection, schedule: Q04DX002 (ip), vehicle: saline with Tween-80 95 % of control

CCCCc1csc(=S)[nH]1
inactive: dose: 100.0 mg/kg/injection, schedule: Q01DX001 (sc), vehicle: carboxymethylcellulose (CMC) 100 % of control | dose: 200.0 mg/kg/injection, schedule: Q01DX001 (sc), vehicle: carboxymethylcellulose (CMC) 113 % of control | dose: 400.0 mg/kg/injection, schedule: Q01DX001 (sc), vehicle: carboxymethylcellulose (CMC) 110 % of control

CC(=O)NCc1cccc[n+]1[O-]
inactive: dose: 25.0 mg/kg/injection, schedule: Q04DX002 (ip), vehicle: saline 110 % of control | dose: 50.0 mg/kg/injection, schedule: Q04DX002 (ip), vehicle: saline 105 % of control | dose: 100.0 mg/kg/injection, schedule: Q04DX002 (ip), vehicle: saline 101 % of control and 105 % of control
